This passage reports IC50 results from patent US6358943B1, “N-substituted indolines as estrogenic agents” (American Home Products Corporation, priority 1999, dated 2002).

Broadly, the IC50 is the concentration that gives 50% inhibition. Lower therefore signals higher potency.

The target in the assay is T1, estrogen receptor (ER) (Homo sapiens, UniProt P03372).
T1 construct: expressed in transfected cells; host or cells: CHO cells (cytosol)
T1 sequence (P03372 1-595): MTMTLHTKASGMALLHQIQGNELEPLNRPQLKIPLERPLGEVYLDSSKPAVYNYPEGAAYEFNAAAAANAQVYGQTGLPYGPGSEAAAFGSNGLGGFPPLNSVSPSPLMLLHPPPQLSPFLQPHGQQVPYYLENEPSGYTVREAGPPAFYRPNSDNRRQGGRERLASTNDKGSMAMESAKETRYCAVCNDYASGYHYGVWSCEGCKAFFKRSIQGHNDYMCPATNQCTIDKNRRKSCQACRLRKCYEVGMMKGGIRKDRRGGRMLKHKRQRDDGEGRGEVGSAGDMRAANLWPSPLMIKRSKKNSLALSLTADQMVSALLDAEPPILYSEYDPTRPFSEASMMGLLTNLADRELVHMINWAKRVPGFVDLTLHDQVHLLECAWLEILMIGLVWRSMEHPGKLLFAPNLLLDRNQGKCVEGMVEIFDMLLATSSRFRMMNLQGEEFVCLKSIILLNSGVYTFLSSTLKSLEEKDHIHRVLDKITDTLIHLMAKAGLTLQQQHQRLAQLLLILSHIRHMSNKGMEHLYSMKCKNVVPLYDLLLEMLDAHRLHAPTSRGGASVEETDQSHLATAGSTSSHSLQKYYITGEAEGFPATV
Nature of the assay: Receptor Binding Assay: competition with [3H]17β-estradiol, cytosol of CHO cells overexpressing the estrogen receptor. The settings on record: 0.8 nM [3H]17β-estradiol, 12 competitor concentrations, room temperature 2.5 h, CHO cell cytosol.

As for `CC1(C)c2cc(O)ccc2N(Cc2ccc(OCCN3CCCCCC3)cc2)C1c1ccc(O)cc1` (stereo not shown) [Example No. 11, 1-[4-(2-Azepan-1-yl-ethoxy)-benzyl]-2-(4-hydroxy-phenyl)-3,3-dimethyl-2,3-dihydro-1H-indol-5-ol], the IC50 is 350 nM.
